The test system of test [1] is Gem-naïve and Gem-resistant PDAC cells. The test can be described thus: Colony formation assay. It counts as cell-based, human. As for the experimental part:
(§1) S2-013 (FIG. 10A), MiaPaCa-2 (FIG. 10B) and MiaPaCa-GTR (FIG. 10C) show cells seeded at 1000 cells/well and treated with compounds (μM) for 14 days. Media was replaced every 72 hours. Cells were stained with 0.05% crystal violet. Conditioned media from MiaPaCa-2 cells after being treated with indicated compounds was separated on a zymogram gel to analyze the proteolytic activity of MMP9 after treatment (FIG. 10D).
FIG. 11: Inhibition of colony formation in S2-013 cells.
S2-013, MiaPaCa-2 and MiaPaCa-GTR were seeded at 1000 cells/well and treated with compounds (μM) for 14 days. Media was replaced every 72 h. Cells were stained with 0.05% crystal violet (FIG. 10A-C).

For a further test, the system named is Panc-1 cells. In words: Wound-healing (scratch) migration assay. The settings on record: Panc-1, 5 μM, 12 hours. Format: cell-based, human. As for the experimental part:
FIG. 12: Panc-1 and S2-013 cells plated in 24-well plate in a monolayer and scratch wound made with a 200 μl pipette tip and treated with indicated compounds at 5 μM for 12 hours.
The present Example investigates whether ARDAs inhibit the migratory and invasive potential of PDAC cells. Decreased invasive potential of PDAC cells was shown through wound-healing and matrigel-coated Boyden chambers assays. Cells grown to a monolayer were used in migration assay after a scratch was made and incubated for 12 hours. […] In contrast, CGP and Gem were not effective. As expected these compounds also exerted strong anti-invasive efficacy against Capan-1 cells. The tested concentrations at time (12 h) of assay, all cells in each treatment group were ≥90% viable.

Test [2] concerns S2-013. The test can be described thus: MTT cell viability assay. It counts as cell-based. To be noted: Homo sapiens, S2-013, single agent. As for the experimental part:
(§2) FIG. 7: Effect of Galeterone, analogs and Gemcitabine on PDAC cells. MTT cell viability assays were conducted on Gem-naïve and Gem-resistant cells.
(§3) The present Example investigates the potential efficacy of galeterone and three lead ARDAs in inhibiting cell viability of both gemcitabine naïve (Gem-naïve) and gemcitabine/erlotinib resistant human pancreatic cancer cells in vitro. […] Galeterone and its analogs show significant anti-proliferative active against both gemcitabine naïve and gemcitabine resistant PDAC cells.

For test [3], the system named is S2-013. In words: Apoptosis, acridine orange ethidium bromide staining. It counts as cell-based, human. To be noted: S2-013 metastatic cell line, 2.5 μM, 24 hours. As for the experimental part:
(§4) FIG. 18: Apoptotic induction of Gal and Analogs and Gem-resistant PDAC cells. (FIG. 18A) Galeterone and analogs induce apoptosis in S2-013 cells analyzed by acridine orange ethidium bromide staining. Cells were treated with 2.5 μM. (FIG. 18B) Galeterone and analogs were compared to gemcitabine in inducing apoptosis analyzed by flow cytometry in MiaPaCa-GR cells.
(§5) Cells treated with indicated doses for 24 hours were analyzed by acridine orange ethidium bromide assay and also by FACS analysis using Annexin V and PI staining following manufacturer's protocol. […] Galeterone and analogs induce apoptosis in S2-013 cells analyzed by acridine orange ethidium bromide staining ([…]). Galeterone and analogs were compared to gemcitabine in inducing both early and late apoptosis analyzed by flow cytometry (FIG. 18B).

For test [4], the system named is MiaPaCa-GR. The test can be described thus: Apoptosis, flow cytometry Annexin V and PI staining. It counts as cell-based, human. To be noted: MiaPaCa-GR cells, 24 hours. As for the experimental part: as §4, §5
In another test the test system is MiaPaCa-2. The test can be described thus: MTT cell viability / anti-proliferative assay. The settings on record: for anti-proliferative potency compared with gemcitabine: MiaPaCa-2 cells, MTT assay after a 7-day agent treatment. It counts as cell-based, human. As for the experimental part: FIG. 6: Inhibition of PDAC cell proliferation: MTT assay after a 7-day agent treatment.
as §2
The present Example presents the in vitro anti-proliferative activities of compounds in three human PDAC cell lines, including, Capan-1, MiaPaCa-2 and S2-013 because of their relative resistant nature (30, 31). The cell lines used were authenticated by short tandem repeat.
as §3

The subject of a further test is MMP9. The test can be described thus: Zymography of conditioned media from MiaPaCa-2 cells. The settings on record: conditioned media of MiaPaCa-2 cells treated 3 days. Format: cell-based, human. As for the experimental part: as §1
Zymography assays were performed by seeding cells in 10 cm plates in phenol-red free media with no fetal bovine serum (FBS) and treated for 3 days. Media from cells were concentrated using amicon ultra filtration columns and normalized protein run on a 10% gelatin gels. Conditioned media from MiaPaCa-2 cells after being treated with indicated compounds was separated on a zymogram gel to analyze the proteolytic activity of MMP9 after treatment (FIG. 10D). […] The ARDAs caused significant depletion of matrix metalloproteinases (MMPs).

Test [5] deals with MiaPaCa-GR. In words: MTT cell viability assay. Format: cell-based. The settings on record: Homo sapiens, MiaPaCa-GR (gemcitabine resistant), single agent. As for the experimental part: as §2
(§6) Examples below were preformed using a panel of PDAC cells from primary tumors (MiaPaca-2, Panc-1, Capan-1 and HS766T), metastatic lesions (S2-013 and S2VP10) and drug-resistant MiaPaCa-GR (gemcitabine resistant-200 nM) and MiaPaCa-GTR (erlotinib-2 μM/gemcitabine-200 nM) cell lines. The activities of ARDAs and Gemcitabine (Gem) can be evaluated using complementary assays and molecular determinants can also be identified in a panel of human PDAC cells. The mechanism(s) of action of ARDAs alone and in combination with Gem with the primary goal to identify the key mediators for their activities in PDAC cells are disclosed here. […] Initially four cell line (2 Gem-naïve and the two Gem-resistant lines) will be used. Key findings derived from these cell lines can be validated in additional cell lines if necessary. How these agents modulate Mnk1/2-peIF4E and NFκ-B can also be focused on.
(§7) The present Example investigates the potential efficacy of galeterone and three lead ARDAs in inhibiting cell viability of both gemcitabine naïve (Gem-naïve) and gemcitabine/erlotinib resistant human pancreatic cancer cells in vitro. […]

A further test relates to MiaPaCa-GTR. The test can be described thus: MTT cell viability assay. Format: cell-based. The settings on record: Homo sapiens, MiaPaCa-GTR (gemcitabine/erlotinib resistant), single agent. As for the experimental part:
as §2, §6, §7

The next test has as its target T1, androgen receptor (Homo sapiens, UniProt P10275).
T1 sequence (P10275 1-920): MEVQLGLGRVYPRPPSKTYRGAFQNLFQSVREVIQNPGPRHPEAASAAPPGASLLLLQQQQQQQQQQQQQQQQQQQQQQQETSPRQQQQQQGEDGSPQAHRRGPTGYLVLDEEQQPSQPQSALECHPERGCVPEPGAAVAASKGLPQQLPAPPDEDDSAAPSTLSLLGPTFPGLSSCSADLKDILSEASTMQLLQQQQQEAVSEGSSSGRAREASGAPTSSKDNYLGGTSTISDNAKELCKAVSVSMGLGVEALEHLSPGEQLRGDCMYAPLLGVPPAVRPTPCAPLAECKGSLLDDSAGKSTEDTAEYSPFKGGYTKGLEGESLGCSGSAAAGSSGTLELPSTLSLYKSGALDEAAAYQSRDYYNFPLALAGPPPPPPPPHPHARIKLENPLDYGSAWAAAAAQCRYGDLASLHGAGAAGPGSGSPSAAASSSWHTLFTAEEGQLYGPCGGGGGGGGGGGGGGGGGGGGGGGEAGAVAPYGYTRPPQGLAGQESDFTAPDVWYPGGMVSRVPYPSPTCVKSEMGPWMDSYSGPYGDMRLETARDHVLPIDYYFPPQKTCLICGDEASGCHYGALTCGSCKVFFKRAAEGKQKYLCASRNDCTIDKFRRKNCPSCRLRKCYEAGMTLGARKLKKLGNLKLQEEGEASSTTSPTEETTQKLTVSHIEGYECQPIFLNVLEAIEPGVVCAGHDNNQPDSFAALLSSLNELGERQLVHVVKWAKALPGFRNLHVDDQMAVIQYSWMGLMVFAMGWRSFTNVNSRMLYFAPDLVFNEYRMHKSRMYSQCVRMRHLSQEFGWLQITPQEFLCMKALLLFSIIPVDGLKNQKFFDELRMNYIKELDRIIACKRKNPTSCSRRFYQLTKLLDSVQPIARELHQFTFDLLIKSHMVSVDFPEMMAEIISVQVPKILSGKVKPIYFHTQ
To be noted: compared to VN/124-1, reference (1); cited from earlier work.

For test [6] the following is noted: compared to VN/124-1, reference (1); cited from earlier work.
Test [7] relates to patients with advanced-stage pancreatic cancer. The settings on record: in combination with gemcitabine, Moore et al. 2007; cited from earlier work.
The mark [8] stands for this setting: 1000 cells/well, treated 14 days, alone or in combination with gemcitabine.

In the case of `Nc1ncnc2n[nH]c(Nc3ccc(F)cc3)c12` [CGP, reference compound], in test [1] (CGP at 2.5 μM), the colony formation result was “did not significantly affect colony formation”. Further, the cell migration entry with Panc-1 cells is “not effective”.

Take `C[C@]12CC[C@H](O)CC1=CC[C@@H]1[C@@H]2CC[C@]2(C)C(n3cnc4ccccc43)=CC[C@@H]12` [Galeterone, galeterone]: the GI50 with S2-013 [2] amounted to 490 nM; with MiaPaCa-2 (Homo sapiens, MIA PaCa-2, MiaPaCa-2, single agent, MTT) it was 1230 nM; in the test with MiaPaCa-GR [5], 7080 nM; in the test on MiaPaCa-GTR it was 2190 nM. Further, the induction of apoptosis entry in the test with S2-013 [3] and in the test on MiaPaCa-GR [4] was “significantly induce apoptosis” each time. Also, the “anti-proliferative potency compared with gemcitabine” value in the test on MiaPaCa-2 was “almost as potent as gemcitabine”. The MMP9 secretion entry with MMP9 (alone) and in the test on MMP9 (in combination with gemcitabine) was “decreases MMP9 secretion” in each case. The colony formation result in test [1] (setting [8]) was “significantly inhibited”. Further, the cell migration result with Panc-1 cells was “significant inhibition”.

As to `Nc1ccn([C@@H]2O[C@H](CO)[C@@H](O)C2(F)F)c(=O)n1` [Gemcitabine, reference compound], the colony formation result in test [1] (setting [8]) was “inhibit colony formation”. Further, the cell migration entry in the test with Panc-1 cells is recorded as “not effective”.

`C[C@]12CC[C@H](OCc3ccncc3)CC1=CCC1C2CC[C@]2(C)C(n3cnc4ccccc43)=CCC12` (stereo partly shown) [VNPP414]: the “anti-proliferative potency compared with gemcitabine” value in the test with MiaPaCa-2 was “almost as potent as gemcitabine”. The cell migration result in the test with Panc-1 cells is recorded as “significant inhibition”.

As for `C[C@]12CC[C@H](n3ccnc3)CC1=CC[C@@H]1[C@@H]2CC[C@]2(C)C(n3cnc4ccccc43)=CC[C@@H]12` [VNPP433-3β], the “anti-proliferative potency compared with gemcitabine” value with MiaPaCa-2 is recorded as “almost as potent as gemcitabine”.

On to `C[C@]12CC[C@H](OC(=O)n3ccnc3)CC1=CCC1C2CC[C@]2(C)C(n3cnc4ccccc43)=CCC12` (stereo partly shown) [VNPT-55], for which the “ARD potency relative to VN/124-1” value on androgen receptor was 8 fold. In addition, the “anti-proliferative potency compared with gemcitabine” value in the test on MiaPaCa-2 is recorded as “almost as potent as gemcitabine”. In addition, the “anti-proliferative (AP) potency relative to VN/124-1” value in test [6] is recorded as 4 fold.

Take `C#Cc1cccc(Nc2ncnc3cc(OCCOC)c(OCCOC)cc23)c1` [erlotinib]: the “median overall survival benefit” value in test [7] is listed as “less than four weeks”.
